# Experimental data published in patent US7638521B2, “3-guanidinocarbonyl-1-heteroaryl-indole derivatives, preparation process, their use as medicaments, and pharmaceutical compositions comprising them” (sanofi-aventis Deutschland GmbH, priority 2002, dated 2009).
# Where a name gives a salt, the structure may show the parent alone.
# Legend:
# [1] = target: T1, NHE-1 subtype (Homo sapiens, UniProt P19634); test: NHE inhibition FLIPR test (intracellular pH recovery, BCECF) in transfected LAP-1 cells; assay type: cell-based; conditions: transfected LAP-1 cell line expressing NHE-1 subtype, pHi recovery after acidification, read-out: IC50 (NHE1)
# T1 construct: expressed in transfected cells; host or cells: LAP-1 (parental line without endogenous NHE activity), G418 selection
# T1 sequence (P19634 whole entry): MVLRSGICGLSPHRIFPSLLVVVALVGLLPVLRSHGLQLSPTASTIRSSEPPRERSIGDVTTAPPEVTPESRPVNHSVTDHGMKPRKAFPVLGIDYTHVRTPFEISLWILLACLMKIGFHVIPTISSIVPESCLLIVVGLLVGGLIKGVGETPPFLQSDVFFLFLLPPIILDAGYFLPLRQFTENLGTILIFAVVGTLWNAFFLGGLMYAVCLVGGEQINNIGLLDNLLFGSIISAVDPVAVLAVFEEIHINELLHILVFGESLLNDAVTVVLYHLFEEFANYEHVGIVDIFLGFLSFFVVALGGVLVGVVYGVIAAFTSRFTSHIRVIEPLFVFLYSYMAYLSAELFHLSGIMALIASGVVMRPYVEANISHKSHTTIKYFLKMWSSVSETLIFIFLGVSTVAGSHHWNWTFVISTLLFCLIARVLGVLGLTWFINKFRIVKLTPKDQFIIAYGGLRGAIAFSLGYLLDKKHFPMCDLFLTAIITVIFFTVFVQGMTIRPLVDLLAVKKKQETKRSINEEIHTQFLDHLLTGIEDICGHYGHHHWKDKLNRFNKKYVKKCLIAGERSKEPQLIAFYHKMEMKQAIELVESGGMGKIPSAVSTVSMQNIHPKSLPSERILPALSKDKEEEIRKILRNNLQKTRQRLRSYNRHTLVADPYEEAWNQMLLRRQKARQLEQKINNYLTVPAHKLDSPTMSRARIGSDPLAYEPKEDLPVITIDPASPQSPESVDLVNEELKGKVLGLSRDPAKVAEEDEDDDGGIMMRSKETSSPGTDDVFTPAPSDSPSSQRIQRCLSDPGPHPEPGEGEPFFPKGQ
# Experimental: The NHE inhibitory activities (IC50 values) of the compounds according to the invention were determined by a FLIPR test. The test is performed in the FLIPR (Fluorescent Imaging Plate Reader) equipped with clear-bottomed and black-walled 96-well microtitration plates. […] The growth medium for the transfected cells (Iscove+10% foetal calf serum) also comprises G418 as selection antibiotic to ensure the presence of transfected sequences. The actual test begins by eliminating the growth medium and adding 100 μl of loading buffer per well (5 μM of BCECF-AM [2′,7′-bis(2-carboxyethyl)-5-(6)-carboxyfluoresceine acetoxymethyl ester] in 20 mM of NH4Cl, 115 mM of choline chloride, 1 mM of CaCl2, 5 mM of KCl, 20 mM of HEPES and 5 mM of glucose; pH 7.4 (adjusted with KOH). The cells are then incubated for 20 minutes at 37° C. This incubation results in the loading of the fluorescent dye into the cells, the fluorescence intensity of which depends on the pHi, and on the NH4Cl, which results in a slight basification of the cells. The precursor BCECF-AM, a non-fluorescent dye, is, as an ester, capable of crossing the membrane. The actual dye, which is incapable of crossing the membrane, is released inside the cell by esterases. After this 20-minute incubation, the loading buffer, which comprises NH4Cl and free BCECF-AM, is removed by washing three times in the cell washing device (Tecan Columbus), each wash being performed with 400 μl of washing buffer (133.8 mM of choline chloride, 4.7 mM of KCl, 1.25 mM of MgCl2, 1.25 mM of CaCl2, 0.97 mM of K2HPO4, 0.23 mM of KH2PO4, 5 mM of HEPES and 5 mM of glucose; pH 7.4 (adjusted with KOH)). The residual volume remaining in the wells is 90 μl (possibly between 50 and 125 μl). This washing step removes the free BCECF-AM and results in an intracellular acidification (pHi of 6.3-6.4) due to the removal of the external ammonium ions. As the equilibrium of the intracellular ammonium with the aqueous ammonia and the protons, by removal of the extracellular ammonium and by the subsequent immediate crossing of the aqueous ammonia across the cell membrane, is disrupted, the washing process results in intracellular protons remaining, which is the cause of the intracellular acidification. This acidification can result finally in the death of the cells if it lasts long enough. It is important here for the washing buffer to be free of sodium (<1 mM), otherwise the extracellular sodium ions would result in an immediate increase in the pHi on account of the activity of the cloned NHE isoforms. It is also important for all the buffers used (loading buffer, washing buffer and regeneration buffer) not to contain any HCO3-ions, otherwise the presence of bicarbonate would result in the activation of bicarbonate-dependent systems that disrupt the pHi regulation, which systems are contained in the LAP-1 parental cell line. The microtiter plates containing acidified cells are then transferred (up to 20 minutes after the acidification) to the FLIPR. In the FLIPR, the intracellular fluorescent dye is activated with light of a wavelength of 488 nm, which is generated by an argon laser, and the measuring parameters (laser power, illumination time and diaphragm of the […] camera integrated into the FLIPR) are chosen such that the average value of the fluorescent signal per well is between 30,000 and 35,000 relative fluorescence units. The actual measurement in the FLIPR starts with a photograph being taken by the CCD camera every two seconds under software control. After 10 seconds, the increase in the intracellular pH is initiated by adding 90 μl of regeneration buffer (133.8 mM of NaCl, 4.7 mM of KCl, 1.25 mM of MgCl2, 1.25 mM of CaCl2, 0.97 mM of K2HPO4, 0.23 mM of KH2PO4, 10 mM of HEPES and 5 mM of glucose; pH 7.4 (adjusted with NaOH)) using a 96-well pipette device incorporated into the FLIPR. Some wells, to which is added pure regeneration buffer, serve as positive controls (100% NHE activity). […]
Structure (SMILES),IC50 [1] [nM],melting point [°C]
"Cl.N=C(N)NC(=O)c1cn(-c2ccnc3c(C(F)(F)F)cccc23)c2ccccc12 [Example 4, 3-Guanidinocarbonyl-1-(8-(trifluoromethyl)quinol-4-yl)-1H-indole hydrochloride]",1470,212
"COc1ccc2c(c1)c(C(=O)N=C(N)N)c(C)n2-c1ccnc2cc(Cl)ccc12 [Example 10, N-[1-(7-Chloro-quinolin-4-yl)-5-methoxy-2-methyl-1H-indole-3-carbonyl]-guanidine trifluoroacetate]",3230,
"COc1ccc2c(c1)c(C(=O)N=C(N)N)c(C)n2-c1ccnc2ccc(F)cc12 [Example 12, N-[1-(6-Fluoro-quinolin-4-yl)-5-methoxy-2-methyl-1H-indole-3-carbonyl]-guanidine trifluoroacetate]",2640,
"NC(N)=NC(=O)c1cn(-c2ccnc3cc(Cl)ccc23)c2ccccc12 [Example 9, N-[1-(7-Chloro-quinolin-4-yl)-1H-indole-3-carbonyl]-guanidine trifluoroacetate]",250,
"Cl.N=C(N)NC(=O)c1cn(-c2cc(C(F)(F)F)nc3ccccc23)c2ccccc12 [Example 1, 3-Guanidinocarbonyl-1-(2-(trifluoromethyl)quinol-4-yl)-1H-indole hydrochloride]",2360,216
"COc1ccc2c(c1)c(C(=O)N=C(N)N)c(C)n2-c1ncnc2ccc(Cl)cc12 [Example 14, N-[1-(6-Chloro-quinazolin-4-yl)-5-methoxy-2-methyl-1H-indole-3-carbonyl]-guanidine trifluoroacetate]",2560,

# Further compounds by falling IC50 [1], results first:
IC50 [1] [nM],melting point [°C],Structure (SMILES)
250,238,"Cl.N=C(N)NC(=O)c1cn(-c2ccnc3cc(C(F)(F)F)ccc23)c2ccccc12 [Example 3, 3-Guanidinocarbonyl-1-(7-(trifluoromethyl)quinol-4-yl)-1H-indole hydrochloride]"
240,266,"COc1ccc2c(-n3cc(C(=O)NC(=N)N)c4ccccc43)ccnc2c1.Cl [Example 6, 3-Guanidinocarbonyl-1-(7-methoxyquinol-4-yl)-1H-indole hydrochloride]"
220,260,"Cl.N=C(N)NC(=O)c1cn(-c2ccnc3ccc(C(F)(F)F)cc23)c2ccccc12 [Example 2, 3-Guanidinocarbonyl-1-(6-(trifluoromethyl)quinol-4-yl)-1H-indole hydrochloride]"
120,266,"COc1ccc2nccc(-n3cc(C(=O)NC(=N)N)c4ccccc43)c2c1.Cl [Example 5, 3-Guanidinocarbonyl-1-(6-methoxyquinol-4-yl)-1H-indole hydrochloride]"
10,,"NC(N)=NC(=O)c1cn(-c2ccnc3ccc(F)cc23)c2ccccc12 [Example 11, N-[1-(6-Fluoro-quinolin-4-yl)-1H-indole-3-carbonyl]-guanidine trifluoroacetate]"
7.2,,"Cc1cc(-n2cc(C(=O)N=C(N)N)c3ccccc32)c2ccccc2n1 [Example 8, N-[1-(2-Methyl-quinolin-4-yl)-1H-indole-3-carbonyl]-guanidine trifluoroacetate]"
2.5,,"NC(N)=NC(=O)c1cn(-c2ccnc3c(F)cccc23)c2ccccc12 [Example 13, N-[1-(8-Fluoro-quinolin-4-yl)-1H-indole-3-carbonyl]-guanidine trifluoroacetate]"
1.2,244,"Cl.Cn1ccc2c(-n3cc(C(=O)NC(=N)N)c4ccccc43)ncnc21 [Example 7, 3-Guanidinocarbonyl-1-(7-methyl-7H-pyrrolo[2,3-d]pyrimidin-4-yl)-1H-indole hydrochloride]"
